# Measured values taken from patent publication US20240216381A1, “Px-cholorogenic Acid Comps” (PX ING, LLC, priority 2022, published 2024).
# What was measured:
# [1] = test system: Pentobarbital Sodium induced sleep activity in experimental mice; test: Pentobarbital Sodium induced sleep activity in mice; format: in vivo, Swiss Albino Mice; details: 50 mg HED PX or 1-MX, 25 mg HED CA; for Duration of sleep / Onset time of sleep: test substance intraperitoneal 30 min before 40 mg/kg Pentobarbital sodium; for Duration of sleep, Improvement over P-Control / Onset time of sleep, Improvement over P-Control: vs Pathological Control
# Procedure: The present example was conducted to evaluate the efficacy of test substances on Pentobarbital Sodium induced sleep activity in experimental mice.
# The mice were randomized into nine groups containing eight mice in each group. […] The dose information can be found below in Table 2.
# On the day of experiment, mice from different groups were treated with the control and test substances respectively. After thirty minutes, all groups of mice, except for the Normal Control group were, administered with 40 mg/kg body doses of Pentobarbital sodium to induce sleep. Administration of the test substances was done via intraperitoneal injection. The onset time of sleep was recorded for all the mice. After induction of sleep, mice were placed in the inverted position and when sedation was over, time point where the mice return to its normal posture was noted. The time interval between dosing and start of sleep was recorded as latency time.
# [2] = test system: Scopolamine induced amnesia in rats; test: Cognitive enhancing effect, Elevated Plus Maze, Scopolamine induced amnesia in rats; format: in vivo, Swiss Albino Wistar rats; details: for rat escape latency, Elevated Plus Maze: oral daily for ten days, day 10, 30 min before 1 mg/kg Scopolamine i.p., 50 mg HED PX or 1-MX, 25 mg HED CA; for rat escape latency, Elevated Plus Maze, Improvement over P-Control: vs Pathological Control (Scopolamine)
# Procedure: (§1) The example was to evaluate the effect of the test substances on behavioral activity/memory enhancing activity in experimental rats.
# (§2) The rats were randomized into nine groups containing eight rats in each group. […] The rats were treated with test substances daily for ten consecutive days.
# (§3) On the tenth day test, test substances were administered orally thirty minutes before a 1 mg/kg body weight Scopolamine injection to induce amnesia in rats to all groups except control group. Administration of the Scopolamine injections were done via intraperitoneal injection. This was followed by behavioral test using Elevated Plus Maze apparatus to measure the long-term memory enhancing activity.
# [3] = test system: brain biomarkers; test: Brain biomarkers in rats of the Elevated Plus Maze example; format: in vivo, Swiss Albino Wistar rats; set-up: Achetylcholine, Improvement over P-Control / Dopamine, Improvement over P-Control / Glutathione, Improvement over P-Control / Catalse, Improvement over P-Control / BDNF, Improvement over P-Control / Serotonin, Improvement over P-Control / Cortisol, Improvement over P-Control: concentration or dose not given beside the values; details: for Achetylcholine, brain biomarker / BDNF, brain biomarker / Catalse, brain biomarker / Cortisol, brain biomarker / Dopamine, brain biomarker / Glutathione, brain biomarker / Serotonin, brain biomarker: oral ten days, Scopolamine 1 mg/kg; for Achetylcholine, Improvement over P-Control / BDNF, Improvement over P-Control / Catalse, Improvement over P-Control / Cortisol, Improvement over P-Control / Dopamine, Improvement over P-Control / Glutathione, Improvement over P-Control / Serotonin, Improvement over P-Control: vs Pathological Control (Scopolamine)
# Procedure: as §2, §3
# (§4) Several brain biomarkers were also measured in the rats.
# [4] = test system: brain biomarkers; test: Brain biomarkers in rats of the Morris Water Maze example; format: in vivo, Swiss Albino Wistar rats; set-up: Achetylcholine, Improvement over P-Control / Dopamine, Improvement over P-Control / Glutathione, Improvement over P-Control: concentration or dose not given beside the values; details: for Achetylcholine, brain biomarker / Dopamine, brain biomarker / Glutathione, brain biomarker: oral ten days, Scopolamine 1 mg/kg; for Achetylcholine, Improvement over P-Control / Dopamine, Improvement over P-Control / Glutathione, Improvement over P-Control: vs Pathological Control (Scopolamine)
# Procedure: as §2
# (§5) On the tenth day test, test substances were administered orally thirty minutes before a 1 mg/kg body weight Scopolamine injection to induce amnesia in rats to all groups except control group. Administration of the Scopolamine injections were done via intraperitoneal injection. This was followed by behavioral test using Morris Water Maze apparatus to measure the long-term memory enhancing activity.
# as §4
# [5] = test system: Scopolamine induced amnesia in rats; test: Cognitive enhancing effect, Morris Water Maze, Scopolamine induced amnesia in rats; format: in vivo, Swiss Albino Wistar rats; details: for rat escape latency, Morris Water Maze: oral daily for ten days, day 10, 30 min before 1 mg/kg Scopolamine i.p., 50 mg HED PX or 1-MX, 25 mg HED CA; for rat escape latency, Morris Water Maze, Improvement over P-Control: vs Pathological Control (Scopolamine)
# Procedure: as §1, §2, §5
structure (smiles),measurement,setting,value
"Cn1c(=O)[nH]c2nc[nH]c2c1=O [1-Methylxanthine, 1-methylxanthine]",Duration of sleep,[1],57.75 min
same,Onset time of sleep,[1],42.25 min
same,"Duration of sleep, Improvement over P-Control",[1],107%
same,"Onset time of sleep, Improvement over P-Control",[1],−16%
same,"rat escape latency, Elevated Plus Maze",[2],33.89 s
same,"rat escape latency, Elevated Plus Maze, Improvement over P-Control",[2],49%
same,"Achetylcholine, brain biomarker",[3],28.97 U/ml
same,"BDNF, brain biomarker",[3],17.29 pg/mL
same,"Catalse, brain biomarker",[3],155.96 U/mL
same,"Cortisol, brain biomarker",[3],79.4 ng/mL
same,"Dopamine, brain biomarker",[3],14.51 ng/L
same,"Glutathione, brain biomarker",[3],17.94 µg/mL
same,"Serotonin, brain biomarker",[3],41.63 ng/mL
same,"Achetylcholine, Improvement over P-Control",[3],34%
same,"BDNF, Improvement over P-Control",[3],31%
same,"Catalse, Improvement over P-Control",[3],29%
same,"Cortisol, Improvement over P-Control",[3],−12%
same,"Dopamine, Improvement over P-Control",[3],25%
same,"Glutathione, Improvement over P-Control",[3],32%
same,"Serotonin, Improvement over P-Control",[3],−12%
same,"Achetylcholine, brain biomarker",[4],30.87 U/ml
same,"Dopamine, brain biomarker",[4],13.66 ng/L
same,"Glutathione, brain biomarker",[4],16.06 µg/mL
same,"Achetylcholine, Improvement over P-Control",[4],53%
same,"Dopamine, Improvement over P-Control",[4],33%
same,"Glutathione, Improvement over P-Control",[4],34%
same,"rat escape latency, Morris Water Maze",[5],32.43 s
same,"rat escape latency, Morris Water Maze, Improvement over P-Control",[5],51%
O=C(/C=C/c1ccc(O)c(O)c1)O[C@@H]1C[C@](O)(C(=O)O)C[C@@H](O)[C@H]1O [Chlorogenic acid],Duration of sleep,[1],74.88 min
same,Onset time of sleep,[1],40.5 min
same,"Duration of sleep, Improvement over P-Control",[1],169%
same,"Onset time of sleep, Improvement over P-Control",[1],−20%
same,"rat escape latency, Elevated Plus Maze",[2],30 s
same,"rat escape latency, Elevated Plus Maze, Improvement over P-Control",[2],68%
same,"Achetylcholine, brain biomarker",[3],33.17 U/ml
same,"BDNF, brain biomarker",[3],18.05 pg/mL
same,"Catalse, brain biomarker",[3],161.91 U/mL
same,"Cortisol, brain biomarker",[3],68.51 ng/mL
same,"Dopamine, brain biomarker",[3],15.58 ng/L
same,"Glutathione, brain biomarker",[3],19.89 µg/mL
same,"Serotonin, brain biomarker",[3],38.43 ng/mL
same,"Achetylcholine, Improvement over P-Control",[3],54%
same,"BDNF, Improvement over P-Control",[3],37%
same,"Catalse, Improvement over P-Control",[3],34%
same,"Cortisol, Improvement over P-Control",[3],−24%
same,"Dopamine, Improvement over P-Control",[3],34%
same,"Glutathione, Improvement over P-Control",[3],46%
same,"Serotonin, Improvement over P-Control",[3],−19%
same,"Achetylcholine, brain biomarker",[4],33.03 U/ml
same,"Dopamine, brain biomarker",[4],14.74 ng/L
same,"Glutathione, brain biomarker",[4],16.85 µg/mL
same,"Achetylcholine, Improvement over P-Control",[4],63%
same,"Dopamine, Improvement over P-Control",[4],43%
same,"Glutathione, Improvement over P-Control",[4],41%
same,"rat escape latency, Morris Water Maze",[5],28.54 s
same,"rat escape latency, Morris Water Maze, Improvement over P-Control",[5],72%
Cn1c(=O)[nH]c2ncn(C)c2c1=O [Paraxanthine],Duration of sleep,[1],66.13 min
same,Onset time of sleep,[1],41.5 min
same,"Duration of sleep, Improvement over P-Control",[1],137%
same,"Onset time of sleep, Improvement over P-Control",[1],−18%
same,"rat escape latency, Elevated Plus Maze",[2],36.66 s
same,"rat escape latency, Elevated Plus Maze, Improvement over P-Control",[2],38%
same,"Achetylcholine, brain biomarker",[3],32.04 U/ml
same,"BDNF, brain biomarker",[3],17.72 pg/mL
same,"Catalse, brain biomarker",[3],159.83 U/mL
same,"Cortisol, brain biomarker",[3],73.99 ng/mL
same,"Dopamine, brain biomarker",[3],15.06 ng/L
same,"Glutathione, brain biomarker",[3],19.57 µg/mL
same,"Serotonin, brain biomarker",[3],38.03 ng/mL
same,"Achetylcholine, Improvement over P-Control",[3],49%
same,"BDNF, Improvement over P-Control",[3],34%
same,"Catalse, Improvement over P-Control",[3],32%
same,"Cortisol, Improvement over P-Control",[3],−18%
same,"Dopamine, Improvement over P-Control",[3],30%
same,"Glutathione, Improvement over P-Control",[3],44%
same,"Serotonin, Improvement over P-Control",[3],−20%
same,"Achetylcholine, brain biomarker",[4],34.16 U/ml
same,"Dopamine, brain biomarker",[4],14.21 ng/L
same,"Glutathione, brain biomarker",[4],17.47 µg/mL
same,"Achetylcholine, Improvement over P-Control",[4],69%
same,"Dopamine, Improvement over P-Control",[4],38%
same,"Glutathione, Improvement over P-Control",[4],46%
same,"rat escape latency, Morris Water Maze",[5],30.46 s
same,"rat escape latency, Morris Water Maze, Improvement over P-Control",[5],61%
